≈ marks a conversion by molar mass, not a printed value.
Experiments:
HRV-2 = assay: Inhibition of virus-induced CPE in HeLa cells, automated TCID-50 assay (MIC), HRV-2; type: cell-based, human rhinovirus; details: Rhinovirus A, HRV2, 72 h, 3 day incubation at 33° C.
Method: (§1) They are useful in inhibiting virus replication in vitro and are primarily active against picornaviruses, including enteroviruses, echovirus and coxsackie virus, especially rhinoviruses. […] The test procedure used was as follows: The MIC values were determined by an automated tissue culture infectious dose 50% (TCID-50) assay. HeLa cells in monoloyers in 96-well cluster plates were infected with a dilution of virus which had been shown empirically to produce 80% to 100% cytopathic effect (CPE) in 3 days in the absence of drug. The compound to be tested was serially diluted through 10, 2-fold cycles and added to the infected cells. After a 3 day incubation at 33° C. and 2.5% carbon dioxide, the cells were fixed with a 5% solution of glutaraldehyde followed by staining with a 0.25% solution of crystal violet in water. The plates were then rinsed, dried, and the amount of stain remaining in the well (a measure of intact cells) was quantitated with an optical density reader. The MIC was determined to be the concentration of compound which protected 50% of the cells from virus-induced CPE relative to an untreated virus control. […]

HRV-21 = assay: Inhibition of virus-induced CPE in HeLa cells (MIC), HRV-21; type: cell-based; details: Human rhinovirus sp., HRV21, 72 h, 3 day incubation at 33° C.
Method: as §1

HRV-50 = assay: Inhibition of virus-induced CPE in HeLa cells (MIC), HRV-50; type: cell-based; details: Human rhinovirus sp., HRV50, 72 h, 3 day incubation at 33° C.
Method: as §1

HRV-14 = assay: Inhibition of virus-induced CPE in HeLa cells (MIC), HRV-14; type: cell-based, human rhinovirus; details: Rhinovirus B, HRV14, 72 h, 3 day incubation at 33° C.
Method: as §1

HRV-22 = assay: Inhibition of virus-induced CPE in HeLa cells (MIC), HRV-22; type: cell-based; details: Human rhinovirus sp., HRV22, 72 h, 3 day incubation at 33° C.
Method: as §1

HRV-67 = assay: Inhibition of virus-induced CPE in HeLa cells (MIC), HRV-67; type: cell-based; details: Human rhinovirus sp., HRV67, 72 h, 3 day incubation at 33° C.
Method: as §1

HRV-1A = assay: Inhibition of virus-induced CPE in HeLa cells (MIC), HRV-1A; type: cell-based, human rhinovirus; details: Rhinovirus A, HRV1A, 72 h, 3 day incubation at 33° C.
Method: as §1

HRV-15 = assay: Inhibition of virus-induced CPE in HeLa cells (MIC), HRV-15; type: cell-based; details: Human rhinovirus sp., HRV15, 72 h, 3 day incubation at 33° C.
Method: as §1

HRV-89 = assay: Inhibition of virus-induced CPE in HeLa cells (MIC), HRV-89; type: cell-based, human rhinovirus; details: Rhinovirus A, HRV89, 72 h, 3 day incubation at 33° C.
Method: as §1

HRV-1B = assay: Inhibition of virus-induced CPE in HeLa cells (MIC), HRV-1B; type: cell-based, human rhinovirus; details: Rhinovirus A, HRV1B, 72 h, 3 day incubation at 33° C.
Method: as §1

HRV-25 = assay: Inhibition of virus-induced CPE in HeLa cells (MIC), HRV-25; type: cell-based; details: Human rhinovirus sp., HRV25, 72 h, 3 day incubation at 33° C.
Method: as §1

HRV-86 = assay: Inhibition of virus-induced CPE in HeLa cells (MIC), HRV-86; type: cell-based; details: Human rhinovirus sp., HRV86, 72 h, 3 day incubation at 33° C.
Method: as §1

HRV-30 = assay: Inhibition of virus-induced CPE in HeLa cells (MIC), HRV-30; type: cell-based; details: Human rhinovirus sp., HRV30, 72 h, 3 day incubation at 33° C.
Method: as §1

HRV-41 = assay: Inhibition of virus-induced CPE in HeLa cells (MIC), HRV-41; type: cell-based; details: Human rhinovirus sp., HRV41, 72 h, 3 day incubation at 33° C.
Method: as §1

[1] = system: human rhinovirus (HRV) serotypes, panel T; assay: MIC50/MIC80 over panel T of fifteen human rhinovirus serotypes (HeLa cell CPE); type: cell-based
Method: (§2) They are useful in inhibiting virus replication in vitro and are primarily active against picornaviruses, including enteroviruses, echovirus and coxsackie virus, especially rhinoviruses. […] The test procedure used was as follows: The MIC values were determined by an automated tissue culture infectious dose 50% (TCID-50) assay. HeLa cells in monoloyers in 96-well cluster plates were infected with a dilution of virus which had been shown empirically to produce 80% to 100% cytopathic effect (CPE) in 3 days in the absence of drug. The compound to be tested was serially diluted through 10, 2-fold cycles and added to the infected cells. After a 3 day incubation at 33° C. and 2.5% carbon dioxide, the cells were fixed with a 5% solution of glutaraldehyde followed by staining with a 0.25% solution of crystal violet in water. The plates were then rinsed, dried, and the amount of stain remaining in the well (a measure of intact cells) was quantitated with an optical density reader. The MIC was determined to be the concentration of compound which protected 50% of the cells from virus-induced CPE relative to an untreated virus control.
In the above test procedures, representative compounds of formula I were tested against some the serotypes from either a panel of fifteen human rhinovirus (HRV) serotypes, (noted in the table as panel T) namely, HRV-2, -14, -1A, -1B, -6, -21, -22, -15, -25, -30, -50, -67, -89, -86 and -41 or against some of the serotypes from a panel of 10 human rhinovirus serotypes namely HRV-3, -4, -5, -9, -16, -18, -38, -66, -75 and -61, (noted in the table as panel B) and the MIC value, expressed in micrograms per milliliter ([…]), for each rhinovirus serotype was determined for each virus, example 1e is given as an example of the data. Then MIC50 and MIC80 values, which are the minimum concentrations of the compound required to inhibit 50% and 80%, respectively, of the tested serotypes were determined.
The following Table gives the test results for representative compounds of the invention. The panel of viruses used in the test appears before the MIC80 and MIC50 figure and the number of serotypes which the compound is tested against (N) is indicated after the MIC80 and MIC50 figure.

[2] = system: 15 most commonly isolated nonpolio enteroviruses; assay: MIC for the 15 most commonly isolated nonpolio enteroviruses; type: cell-based; details: 15 nonpolio enteroviruses
Method: as §2
Using the method described above, Example 1e was tested against other viruses. […]

coxsackievirus A9 [3] = assay: Oral efficacy against coxsackievirus A9 in suckling ICR mice, daily for five days; type: in vivo, mice (suckling ICR pups)
coxsackievirus A9 [4] = assay: Oral efficacy against coxsackievirus A9 in suckling mice, administered once; type: in vivo; details: Enterovirus B, 60 h, once 2.5 days postinfection, read-out: 50% protective dose
Method: In another study of the oral efficacy of Example 1e against a coxsackievirus A9 infection in suckling mice, in which the compound was administered once 2.5 days postinfection, the 50% protective dose was determined to be 93 mg/kg per day.

coxsackievirus A21 = assay: Oral efficacy against coxsackievirus A21 in weanling ICR mice; type: in vivo; details: for % Alive at Day 17: oral
coxsackievirus B3 = assay: Oral efficacy against coxsackievirus B3 in mice; type: in vivo, adult male BALB/c mice

Cc1cc(CCCOc2c(C)cc(-c3noc(C(F)(F)F)n3)cc2C)on1 [Example 1e, 5-{3-[2,6--Dimethyl-4-(5-trifluoromethyl-1,2,4-oxadiazol-3-yl)phenoxy]propyl}-3-methylisoxazole]
MIC (HRV-2): 0.027 µg/mL (≈ 0.0708 µM)
MIC (HRV-21): 0.015 µg/mL (≈ 0.0393 µM)
MIC (HRV-50): 0.154 µg/mL (≈ 0.404 µM)
MIC (HRV-14): 0.022 µg/mL (≈ 0.0577 µM)
MIC (HRV-22): 0.011 µg/mL (≈ 0.0288 µM)
MIC (HRV-67): 0.07 µg/mL (≈ 0.184 µM)
MIC (HRV-1A): 0.119 µg/mL (≈ 0.312 µM)
MIC (HRV-15): 0.147 µg/mL (≈ 0.385 µM)
MIC (HRV-89): 0.015 µg/mL (≈ 0.0393 µM)
MIC (HRV-1B): 0.054 µg/mL (≈ 0.142 µM)
MIC (HRV-25): 0.036 µg/mL (≈ 0.0944 µM)
MIC (HRV-86): 0.029 µg/mL (≈ 0.076 µM)
MIC (HRV-30): 0.047 µg/mL (≈ 0.123 µM)
MIC (HRV-41): 0.338 µg/mL (≈ 0.886 µM)
MIC50 ([1]; Human rhinovirus sp., 72 h, minimum concentration required to inhibit 50% of the tested serotypes): 0.0415 µg/mL (≈ 0.109 µM)
MIC80 ([1]; minimum concentration required to inhibit 80% of the tested serotypes): 0.119 µg/mL (≈ 0.312 µM)
overall MIC80 [2]: 0.05 µM
% Nonparalyzed at Day 13 (coxsackievirus A9 [3]; 0.2 mg/kg per day, oral): 7%
% Nonparalyzed at Day 13 (coxsackievirus A9 [3]; 2.0 mg/kg per day, oral): 10%
% Nonparalyzed at Day 13 (coxsackievirus A9 [3]; 20 mg/kg per day, oral): 10%
% Nonparalyzed at Day 13 (coxsackievirus A9 [3]; 200 mg/kg per day, oral): 87%
ED50 (coxsackievirus A9 [3]; Enterovirus B, A9, po, coxsackievirus A9, suckling mice, oral, daily for five days beginning 2.5 days postinfection, read-out: 50% protective dose (PD50)): 88 mg/kg
protection of infected mice, oral (coxsackievirus A9 [3]; coxsackievirus A9): orally effective in protecting mice
ED50 (coxsackievirus A9 [4]): 93 mg/kg
% Alive at Day 17 (coxsackievirus A21; 9.4 mg/kg per day): 13%
% Alive at Day 17 (coxsackievirus A21; 18.8 mg/kg per day): 40%
% Alive at Day 17 (coxsackievirus A21; 37.5 mg/kg per day): 75%
% Alive at Day 17 (coxsackievirus A21; 75 mg/kg per day): 100%
ED50 (coxsackievirus A21; Enterovirus C, A21, po, read-out: 50% protective dose (PD50)): 26 mg/kg
protection of infected mice, oral (coxsackievirus A21; coxsackievirus A21): orally effective in protecting mice
% Alive at Day 17 (coxsackievirus B3; 2 mg/kg per day, oral): 8%
% Alive at Day 17 (coxsackievirus B3; 20 mg/kg per day, oral): 67%
% Alive at Day 17 (coxsackievirus B3; 200 mg/kg per day, oral): 92%
ED50 (coxsackievirus B3; Enterovirus B, B3, po, coxsackievirus B3, adult male mice, oral, Day 1 to Day 5, read-out: 50% protective dose (PD50)): 12 mg/kg
protection of infected mice, oral (coxsackievirus B3; coxsackievirus B3): orally effective in protecting mice
efficacy in severe disseminated enterovirus infection model (coxsackievirus B3; coxsackievirus B3 infection in mice): has shown efficacy in this stringent model
